Laboratory results published in the NIST ThermoML archive (doi:10.1016/j.fluid.2018.09.026).
Values joined by “and” are separate entries in the source; they are usually repeats but may differ in a detail not shown here. Identical values can stand only once.

Details: Liquid; for mass density: Vibrating tube method; for viscosity: Vibrating wire viscometry

OCCOCCO [diethylene glycol]
Details | mass density | viscosity
283.15 K, 100 kPa | 1123.1 kg/m3 | –
283.15 K, 640 kPa | 1123.3 kg/m3 | –
283.15 K, 1080 kPa | 1123.5 kg/m3 | –
283.15 K, 1590 kPa | 1123.7 kg/m3 | –
283.15 K, 2140 kPa | 1124 kg/m3 | –
283.15 K, 3050 kPa | 1124.3 kg/m3 | –
283.15 K, 5050 kPa | 1125.2 kg/m3 | –
283.15 K, 6930 kPa | 1126 kg/m3 | –
283.15 K, 9930 kPa | 1127.2 kg/m3 | –
283.15 K, 14810 kPa | 1129.3 kg/m3 | –
283.15 K, 19760 kPa | 1131.3 kg/m3 | –
283.15 K, 24610 kPa | 1133.3 kg/m3 | –
283.15 K, 29600 kPa | 1135.2 kg/m3 | –
283.15 K, 34500 kPa | 1137.1 kg/m3 | –
283.15 K, 39420 kPa | 1139 kg/m3 | –
283.15 K, 44300 kPa | 1140.8 kg/m3 | –
283.15 K, 49180 kPa | 1142.6 kg/m3 | –
283.15 K, 54060 kPa | 1144.4 kg/m3 | –
283.15 K, 59030 kPa | 1146.1 kg/m3 | –
283.15 K, 63810 kPa | 1147.8 kg/m3 | –
283.15 K, 68760 kPa | 1149.5 kg/m3 | –
293.15 K, 100 kPa | 1115.9 kg/m3 | –
293.15 K, 570 kPa | 1116.1 kg/m3 | –
293.15 K, 1080 kPa | 1116.3 kg/m3 | –
293.15 K, 1530 kPa | 1116.6 kg/m3 | –
293.15 K, 2110 kPa | 1116.8 kg/m3 | –
293.15 K, 3080 kPa | 1117.2 kg/m3 | –
293.15 K, 5040 kPa | 1118.1 kg/m3 | –
293.15 K, 6990 kPa | 1118.9 kg/m3 | –
293.15 K, 9940 kPa | 1120.2 kg/m3 | –
293.15 K, 14840 kPa | 1122.3 kg/m3 | –
293.15 K, 19740 kPa | 1124.3 kg/m3 | –
293.15 K, 24680 kPa | 1126.4 kg/m3 | –
293.15 K, 29600 kPa | 1128.4 kg/m3 | –
293.15 K, 34530 kPa | 1130.3 kg/m3 | –
293.15 K, 39360 kPa | 1132.2 kg/m3 | –
293.15 K, 44320 kPa | 1134.1 kg/m3 | –
293.15 K, 49120 kPa | 1136 kg/m3 | –
293.15 K, 54090 kPa | 1137.8 kg/m3 | –
293.15 K, 58990 kPa | 1139.6 kg/m3 | –
293.15 K, 63820 kPa | 1141.3 kg/m3 | –
293.15 K, 68750 kPa | 1143 kg/m3 | –
293.23 K, 180 kPa | – | 34.67 mPa·s [middle of 4 runs]
293.23 K, 1170 kPa | – | 34.84 mPa·s [middle of 4 runs]
293.23 K, 2100 kPa | – | 34.99 mPa·s [middle of 5 runs]
293.23 K, 2110 kPa | – | 35.15 mPa·s
293.23 K, 5060 kPa | – | 35.84 mPa·s and 36.03 mPa·s and 36.04 mPa·s
293.23 K, 5070 kPa | – | 35.72 mPa·s
293.23 K, 10240 kPa | – | 37.39 mPa·s [middle of 4 runs]
293.23 K, 19990 kPa | – | 40.52 mPa·s [middle of 4 runs]
293.23 K, 29910 kPa | – | 43.47 mPa·s and 43.45 mPa·s
293.23 K, 29920 kPa | – | 43.5 mPa·s and 43.6 mPa·s
293.23 K, 40040 kPa | – | 47.04 mPa·s [middle of 5 runs]
293.23 K, 50530 kPa | – | 51.14 mPa·s [middle of 4 runs]
293.23 K, 69900 kPa | – | 58.55 mPa·s
293.23 K, 69990 kPa | – | 58.38 mPa·s
293.23 K, 70070 kPa | – | 58.52 mPa·s
303.15 K, 100 kPa | 1108.8 kg/m3 | –
303.15 K, 680 kPa | 1109 kg/m3 | –
303.15 K, 1130 kPa | 1109.2 kg/m3 | –
303.15 K, 1580 kPa | 1109.4 kg/m3 | –
303.15 K, 2120 kPa | 1109.7 kg/m3 | –
303.15 K, 3030 kPa | 1110.1 kg/m3 | –
303.15 K, 5040 kPa | 1111 kg/m3 | –
303.15 K, 6950 kPa | 1111.9 kg/m3 | –
303.15 K, 9960 kPa | 1113.2 kg/m3 | –
303.15 K, 14840 kPa | 1115.4 kg/m3 | –
303.15 K, 19740 kPa | 1117.5 kg/m3 | –
303.15 K, 24680 kPa | 1119.6 kg/m3 | –
303.15 K, 29610 kPa | 1121.6 kg/m3 | –
303.15 K, 34520 kPa | 1123.6 kg/m3 | –
303.15 K, 39380 kPa | 1125.6 kg/m3 | –
303.15 K, 44350 kPa | 1127.5 kg/m3 | –
303.15 K, 49140 kPa | 1129.4 kg/m3 | –
303.15 K, 54090 kPa | 1131.3 kg/m3 | –
303.15 K, 58990 kPa | 1133.1 kg/m3 | –
303.15 K, 63850 kPa | 1134.9 kg/m3 | –
303.15 K, 68760 kPa | 1136.6 kg/m3 | –
303.27 K, 180 kPa | – | 21.44 mPa·s [middle of 5 runs]
303.27 K, 190 kPa | – | 21.49 mPa·s
303.27 K, 1070 kPa | – | 21.42 mPa·s
303.27 K, 1080 kPa | – | 21.42 mPa·s and 21.5 mPa·s and 21.48 mPa·s
303.27 K, 2100 kPa | – | 21.72 mPa·s and 21.69 mPa·s
303.27 K, 5160 kPa | – | 22.14 mPa·s and 22.35 mPa·s and 22.13 mPa·s
303.27 K, 5170 kPa | – | 22.08 mPa·s
303.27 K, 10180 kPa | – | 22.97 mPa·s
303.27 K, 10190 kPa | – | 23.05 mPa·s and 23.2 mPa·s and 23 mPa·s
303.27 K, 20040 kPa | – | 24.7 mPa·s and 25.05 mPa·s and 24.87 mPa·s
303.27 K, 30920 kPa | – | 26.77 mPa·s [middle of 5 runs]
303.27 K, 40100 kPa | – | 28.49 mPa·s [middle of 5 runs]
303.27 K, 50040 kPa | – | 30.4 mPa·s
303.27 K, 50050 kPa | – | 30.52 mPa·s and 30.43 mPa·s
303.27 K, 50060 kPa | – | 30.59 mPa·s
303.27 K, 50070 kPa | – | 30.49 mPa·s
303.27 K, 68860 kPa | – | 34.35 mPa·s
303.27 K, 68920 kPa | – | 34.55 mPa·s
303.27 K, 69030 kPa | – | 34.74 mPa·s
303.27 K, 69090 kPa | – | 34.81 mPa·s
313.15 K, 100 kPa | 1101.7 kg/m3 and 1101.6 kg/m3 | –
313.15 K, 640 kPa | 1101.8 kg/m3 | –
313.15 K, 1140 kPa | 1102.1 kg/m3 | –
313.15 K, 1640 kPa | 1102.3 kg/m3 | –
313.15 K, 2100 kPa | 1102.5 kg/m3 | –
313.15 K, 3090 kPa | 1103 kg/m3 | –
313.15 K, 5130 kPa | 1103.9 kg/m3 | –
313.15 K, 6960 kPa | 1104.8 kg/m3 | –
313.15 K, 9960 kPa | 1106.1 kg/m3 | –
313.15 K, 14940 kPa | 1108.4 kg/m3 | –
313.15 K, 19750 kPa | 1110.6 kg/m3 | –
313.15 K, 24640 kPa | 1112.7 kg/m3 | –
313.15 K, 29640 kPa | 1114.8 kg/m3 | –
313.15 K, 34510 kPa | 1116.9 kg/m3 | –
313.15 K, 39340 kPa | 1118.9 kg/m3 | –
313.15 K, 44340 kPa | 1120.9 kg/m3 | –
313.15 K, 49190 kPa | 1123.2 kg/m3 | –
313.15 K, 54020 kPa | 1124.7 kg/m3 | –
313.15 K, 59030 kPa | 1126.7 kg/m3 | –
313.15 K, 63880 kPa | 1128.5 kg/m3 | –
313.15 K, 68820 kPa | 1130.3 kg/m3 | –
313.38 K, 200 kPa | – | 14.25 mPa·s and 14.24 mPa·s and 14.26 mPa·s
313.38 K, 210 kPa | – | 14.23 mPa·s [middle of 5 runs]
313.38 K, 1170 kPa | – | 14.28 mPa·s and 14.27 mPa·s
313.38 K, 1180 kPa | – | 14.33 mPa·s
313.38 K, 2300 kPa | – | 14.28 mPa·s
313.38 K, 2310 kPa | – | 14.5 mPa·s
313.38 K, 2320 kPa | – | 14.38 mPa·s
313.38 K, 5060 kPa | – | 14.69 mPa·s and 14.72 mPa·s
313.38 K, 5070 kPa | – | 14.63 mPa·s and 14.65 mPa·s
313.38 K, 5080 kPa | – | 14.64 mPa·s
313.38 K, 10280 kPa | – | 15.26 mPa·s
313.38 K, 10290 kPa | – | 15.13 mPa·s
313.38 K, 10300 kPa | – | 15.2 mPa·s
313.38 K, 20100 kPa | – | 16.33 mPa·s
313.38 K, 20110 kPa | – | 16.16 mPa·s and 16.17 mPa·s
313.38 K, 30110 kPa | – | 17.27 mPa·s and 17.34 mPa·s and 17.33 mPa·s
313.38 K, 40110 kPa | – | 18.5 mPa·s [middle of 4 runs]
313.38 K, 50110 kPa | – | 19.66 mPa·s and 19.68 mPa·s
313.38 K, 50120 kPa | – | 19.64 mPa·s
313.38 K, 50130 kPa | – | 19.61 mPa·s
313.38 K, 69490 kPa | – | 22.11 mPa·s
313.38 K, 69530 kPa | – | 22.04 mPa·s
313.38 K, 69580 kPa | – | 21.98 mPa·s
323.15 K, 100 kPa | 1094.3 kg/m3 | –
323.15 K, 680 kPa | 1094.6 kg/m3 | –
323.15 K, 1130 kPa | 1094.8 kg/m3 | –
323.15 K, 1570 kPa | 1095 kg/m3 | –
323.15 K, 2100 kPa | 1095.2 kg/m3 | –
323.15 K, 3080 kPa | 1095.7 kg/m3 | –
323.15 K, 5080 kPa | 1096.7 kg/m3 | –
323.15 K, 7000 kPa | 1097.6 kg/m3 | –
323.15 K, 9950 kPa | 1099 kg/m3 | –
323.15 K, 14890 kPa | 1101.4 kg/m3 | –
